One block for each compound: values may come before it. Non-standard residues stand in square brackets, D forms with d. Residues, ends and D or L forms follow the SMILES beside them. No end group written: not given here.
How the values were obtained:
[1] = tested on: MCP-1 induced THP-1 migration; experiment: THP-1 trans-well migration assay, MCP-1 as chemoattractant; assay type: cell-based, human
Experimental: (§1) To determine whether an agent inhibits a chemokine-induced activity, such as macrophage recruitment, varying amounts of the agent are mixed with cells in the presence of a known chemoattractant. For example, a range of known concentrations of an agent, e.g., a chemokine peptide, is incubated with a defined number (e.g., 10^4 - […]) of human THP-1 monocyte cells in individual wells of the top compartment of a trans-well plate. Chemokine (such as MCP-1, MIP1α, IL8 or SDF-1α), at a concentration known to cause significant migration of THP-1 cells in the trans-well migration assay, is placed in the lower compartment (Figure 1). Cells are then incubated at 37°C for a period sufficient to allow migration, e.g., 4 hours. After incubation, the cells are gently removed from the top of the filter with a pipette, 20 µl of 20 mM EDTA in simple PBS is added into each top well, and incubated for 20 minutes at 4°C. The filter is carefully flushed with media using a gentle flow, and removed. A standard curve consisting of a two-fold dilution series of THP-1 cells (in 29 µl) is prepared to accurately quantify the number of cells that have migrated. Migrated cells are stained with 3 µl of MTT stock dye solution which is added directly into each well (5 mg/ml in RPMI-1640 without phenol red, Sigma Chemical Co.) and incubated at 37°C for 4 hours. The media is carefully aspirated from each well, and the converted dye is solubilized by 20 µl of DMSO. Absorbance of converted dye is measured at a wavelength of 595 nm using an ELISA plate reader. The number of migrated cells in each well is then determined by interpolation of the standard curve (see also Imai et al.,J. Biol. Chem., 272, 15036 (1997)).
Any method suitable for counting cells can be used, for example, counting with a hemocytometer, incubation of the cells with MTT (see above), or FACS analysis. A negative control assay is also performed, using TGF-β or another non-chemokine chemoattractant (e.g., IL1β or TNFα). To assess whether the agent is cytotoxic, the same concentrations of agent are incubated with THP-1 cells. Agents which 1) are not cytotoxic at levels which inhibit migration, 2) are ineffective at inhibiting the negative control-induced migration, and 3) reduce or inhibit chemokine-induced THP-1 migration, are agents which fall within the scope of the invention.
For this assay, THP-1 cells were maintained at a density of 4 × 10^5 cells per ml in RPMI-1640 supplemented with 10% fetal calf serum + 20 µM 2-mercaptoethanol. Chemotaxis was induced in a 96-well disposable chemotaxis chamber fitted with a 5 µM polycarbonate filter (PVP free, ChemoTX, Neuroprobe Inc., Cabin John). […] The framed filter was aligned with the holes in the corner of the filter frame and placed over the wells.
(§2) Five × 10^4 THP-1 cells in 25 µl of RPMI-1640 were added to the upper compartment. Peptides were dissolved in Milli Q water and then serially diluted in culture medium. In most cases, the serially diluted peptides were added to the upper compartment of the chemotaxis chamber. The chamber was incubated at 37°C in a humidified atmosphere of 5% CO2 for 4 hours.
After incubation, the cells were gently removed from the top of the filter with a pipette, 20 µl of 20 mM EDTA in PBS was added into each top well, and the mixture was incubated for 20 minutes at 4°C. The filter was then carefully flushed with media using a gentle flow, and removed. A standard curve was prepared to accurately quantify the number of THP-1 cells that had migrated. The curve was based on a two-fold dilution series of THP-1 cells (top standard 100,000 cells in 29 µl). Cells which had migrated, and in separate wells, the cells in the standards, were stained with 3 µl of MTT stock solution which was added directly into each well (5 mg/ml in RPMI 1640 without phenol red, Sigma Chemical Co.) and incubated at 37°C for 4 hours. The media was carefully aspirated from each well, and the converted dye was solubilized by 20 µl of DMSO. […]

[2] = tested on: MIP1α induced THP-1 migration; experiment: THP-1 trans-well migration assay, MIP1α as chemoattractant; assay type: cell-based, human; settings: inhibition of THP-1 migration; n.s./ns = not statistically significant
Experimental: as §1
(§3) For this assay, THP-1 cells were maintained at a density of 4 × 10^5 cells per ml in RPMI-1640 supplemented with 10% fetal calf serum + 20 µM 2-mercaptoethanol. Chemotaxis was induced in a 96-well disposable chemotaxis chamber fitted with a 5 µM polycarbonate filter (PVP free, ChemoTX, Neuroprobe Inc., Cabin John). Twenty-nine µl of chemoattractant (recombinant human chemokine; 50 ng/ml, i.e., 5.9 nM) or control (100 ng/ml TGFβ) was added to the lower compartment of each well. The framed filter was aligned with the holes in the corner of the filter frame and placed over the wells.
as §2
(§4) After incubation, the cells were gently removed from the top of the filter with a pipette, 20 µl of 20 mM EDTA in PBS was added into each top well, and the mixture was incubated for 20 minutes at 4°C. The filter was then carefully flushed with media using a gentle flow, and removed. A standard curve was prepared to accurately quantify the number of THP-1 cells that had migrated. The curve was based on a two-fold dilution series of THP-1 cells (top standard 100,000 cells in 29 µl). Cells which had migrated, and in separate wells, the cells in the standards, were stained with 3 µl of MTT stock solution which was added directly into each well (5 mg/ml in RPMI 1640 without phenol red, Sigma Chemical Co.) and incubated at 37°C for 4 hours. The media was carefully aspirated from each well, and the converted dye was solubilized by 20 µl of DMSO. Absorbance of converted dye was measured at a wavelength of 595 nm using an ELISA plate reader. The number of cells that had migrated in each well was determined by interpolation of the standard curve.
(§5) To investigate the receptor specificity of peptide 3 inhibition, the ED50 was determined for peptide 3(1-12)[MCP-1] (SEQ ID NO:1) inhibition of THP-1 migration induced by chemokines which signal through different receptors than MCP-1 receptors. […]

[3] = tested on: SDF-1α induced THP-1 migration; experiment: THP-1 trans-well migration assay, SDF-1α as chemoattractant; assay type: cell-based, human; settings: inhibition of THP-1 migration; n.s./ns = not statistically significant
Experimental: as §1, §3, §2, §4, §5

[4] = tested on: gp120; settings: ns = not significant; >100 = ED50 not determined
Experimental: Binding assays. Cells (either Jurkat T-cells or THP-1 cells) were grown in RPMI 1640 medium supplemented with 10% fetal calf serum, 2 mM glutamine, 20 µM β-mercaptoethanol, 100 U/ml penicillin and 100 µg/ml streptomycin and maintained between 2 × 10^5 and 1 × 10^6 cells/ml. Prior to performing a binding assay, cells were spun out (100 × g; 4 minutes) and washed 3 times in ice-cold PBS. A volume of cell suspension in PBS containing 10^6 cells (for Jurkat cells) or 4 × 10^5 cells (for THP-1 cells) was pipetted into each well of a V-bottom 96-well plate (Gibco BRL) and spun out (100 x g; 4 minutes). Triplicate wells were then resuspended in 100 µl binding medium (PBS pH 7.2 containing 0.1% fatty acid-free bovine serum albumin (BSA)) containing labeled peptide in the presence or absence of various concentrations of unlabeled peptide. The plate was then incubated on ice for 90 minutes. Cells were washed 3 times with 380 µl of ice-cold PBS, spinning out the cells each time (100 × g; 4 minutes), and resuspended in 100 µl binding medium containing streptavidin-peroxidase (Amersham International) at 1:1000 dilution. Cells were incubated for a further 15 minutes on ice to allow labeling of any bound biotinylated peptide, then washed 4 times as above. Cells were then incubated with 200 µl TMB substrate (K-Blue, Bionostics) for 20 minutes at room temperature, and the reaction stopped by addition of 50 µl 2 M HCl. The plate was spun (3,000 × g; 3 minutes) and 200 µl of the colored product was transferred to an empty 96-well ELISA plate and the absorbance at 450 nm determined. For each assay, the absorbance of a blank reaction (no peptide added) was subtracted from all readings before further analysis.
Binding experiments with labeled peptide 2 were performed with 10 nM labeled peptide in each reaction.

[5] = target: T1, Duffy Antigen Receptor for Chemokines (DARC) (Homo sapiens, UniProt Q16570); experiment: DARC binding: competition with 125I-MCP-1 on red blood cells; settings: for DARC binding (µM): ns = not significantly different from control, >100 = not determined
T1 sequence (Q16570 1-336): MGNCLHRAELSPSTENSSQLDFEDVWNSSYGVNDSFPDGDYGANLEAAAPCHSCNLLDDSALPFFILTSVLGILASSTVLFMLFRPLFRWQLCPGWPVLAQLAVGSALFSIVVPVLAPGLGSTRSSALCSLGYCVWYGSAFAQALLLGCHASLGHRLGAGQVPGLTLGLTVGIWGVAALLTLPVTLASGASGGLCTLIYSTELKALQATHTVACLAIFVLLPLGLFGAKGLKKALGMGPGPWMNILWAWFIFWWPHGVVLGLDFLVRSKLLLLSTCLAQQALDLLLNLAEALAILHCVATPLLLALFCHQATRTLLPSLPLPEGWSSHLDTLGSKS

[6] = tested on: chemokine-induced THP-1 migration; experiment: THP-1 trans-well migration assay, several chemokines together (averages, selectivity, pan-chemokine statements); assay type: cell-based, human; settings: average inhibitory ED50 for THP-1 migration induced by each of the chemokines
Experimental: To determine whether an agent inhibits a chemokine-induced activity, such as macrophage recruitment, varying amounts of the agent are mixed with cells in the presence of a known chemoattractant. […] Chemokine (such as MCP-1, MIP1α, IL8 or SDF-1α), at a concentration known to cause significant migration of THP-1 cells in the trans-well migration assay, is placed in the lower compartment (Figure 1). Cells are then incubated at 37°C for a period sufficient to allow migration, e.g., 4 hours. After incubation, the cells are gently removed from the top of the filter with a pipette, 20 µl of 20 mM EDTA in simple PBS is added into each top well, and incubated for 20 minutes at 4°C. The filter is carefully flushed with media using a gentle flow, and removed. […] The media is carefully aspirated from each well, and the converted dye is solubilized by 20 µl of DMSO.
Chemotaxis was induced in a 96-well disposable chemotaxis chamber fitted with a 5 µM polycarbonate filter (PVP free, ChemoTX, Neuroprobe Inc., Cabin John). […] The framed filter was aligned with the holes in the corner of the filter frame and placed over the wells.
Peptides were dissolved in Milli Q water and then serially diluted in culture medium. In most cases, the serially diluted peptides were added to the upper compartment of the chemotaxis chamber. The chamber was incubated at 37°C in a humidified atmosphere of 5% CO2 for 4 hours.
After incubation, the cells were gently removed from the top of the filter with a pipette, 20 µl of 20 mM EDTA in PBS was added into each top well, and the mixture was incubated for 20 minutes at 4°C. The filter was then carefully flushed with media using a gentle flow, and removed. […] The curve was based on a two-fold dilution series of THP-1 cells (top standard 100,000 cells in 29 µl). […] The media was carefully aspirated from each well, and the converted dye was solubilized by 20 µl of DMSO.
Representative chemokines included […] ("CC"), MIP-1α and RANTES, and two alpha-chemokines ("CXC"), IL-8 and SDF-1α. Additionally, to determine the specificity ofpeptide 3(1-12)[MCP-1]
The number of pluses is a qualitative indicating of the activity of each peptide in each assay.

DARC binding (µM) [5]: ns
Compound: CC(C)[C@@H](N)C(=O)NCC(=O)N1CCC[C@@H]1C(=O)N[C@H](CCCCN)C(=O)N[C@H](CO)C(=O)N[C@H](CS)C(=O)N[C@H](CCC(N)=O)C(=O)N[C@H](CO)C(=O)N[C@H](CO)C(=O)N[C@@H](C(=O)N[C@H](CCC(=O)O)C(=O)N[C@H](Cc1ccccc1)C(=O)N[C@H](Cc1ccc(O)cc1)C(=O)N[C@H](CC(=O)O)C(=O)O)[C@H](C)O [vgpkscqsstefyd] (H-[dV]G[dP][dK][dS][dC][dQ][dS][dS][dT][dE][dF][dY][dD]-OH)

Duffy selectivity / DARC specificity ratio ([5]; estimated ka for binding to red blood cells divided by average inhibitory ED50): 4.59
Compound: CQVWKQKPDAC [LRD-Cys13Leu4Ile11pep3[3-12]]
Average ED50 [6]: 1 µM

DARC binding (µM) [5]: ns
Compound: DYFETSSQCSKPGV [Pep2[MIP1α]]

DARC binding (µM) [5]: ns
Compound: SYRRI [SYRRI]

DARC binding (µM) [5]: ns
Compound: TSSKC [TSSKC]

Continued, compound first:

Compound: CC[C@@H](C)[C@@H](NC(=O)[C@H](NC(=O)[C@@H](CO)NC(=O)[C@@H](CO)NC(=O)[C@@H](CCCCN)NC(=O)[C@@H](CS)NC(=O)[C@H]1CCCN1C(=O)[C@@H](CCCCN)NC(=O)[C@@H](CCC(=O)O)NC(=O)[C@@H](C)NC(=O)[C@H](N)C(C)C)[C@H](C)O)C(=O)N[C@H](CCCNC(=N)N)C(=O)N[C@H](CCCNC(=N)N)C(=O)N[C@H](Cc1ccc(O)cc1)C(=O)N[C@H](CO)C(=O)O [LRD peptide 2(1-15)[MCP-1], Vaekpcksstirrys] (H-[dV][dA][dE][dK][dP][dC][dK][dS][dS][dT][dI][dR][dR][dY][dS]-OH; N-terminus and C-terminus assumed)
ED50 (µM) versus MCP-1 ([1]; inhibition of THP-1 migration, n.s./ns = not statistically significant): ns
ED50 (µM) versus MIP1α [2]: ns
ED50 (µM) versus SDF-1α [3]: ns
gp120 ED-50 [4]: 3 µM

Compound: CLDPKQKWIQC [unlabeled peptide, non-labeled version of the biotinylated peptide]
ED50 for inhibition of MCP-1 induced migration ([1]; MCP-1 at 100 ng/ml in RPMI 1640 + 10% FCS, 4 hours, 5 µm filter): about 9 µM

Compound: CSKPGV [CSKPGV]
DARC binding (µM) [5]: ns

Compound: DYFETSSQC
DARC binding (µM) [5]: ns

Source: patent EP2386565A2, “Compounds and methods to inhibit or augment an inflammatory response” (Cambridge Enterprise Ltd., priority 1999, dated 2000)
